Patent US6740505B1, “Production of proteins” (SmithKline Beecham Corporation, priority 1998, dated 2004)

Key:
[1] = tested on: recombinant murine NS0 cells transfected with a IgG1 humanised anti-CD23 antibody; assay: Antibody titre (Human IgG by nephelometric method) in repeated batch NS0 cell culture; type: cell-based; settings: 56 day culture
Description: (§1) Five Erlenmeyer flasks were inoculated with recombinant murine NS0 cells transfected with a IgG1 humanised anti-CD23 antibody (produced according to the method of Bebbington et al, as supra) in a cholesterol containing protein free/glutamine free medium at 0.2×10^6 cells/ml. Sodium butyrate (0.5M) in PBS was added to the flasks at the following concentrations: 0 mM; 0.025 mM; 0.05 mM; 0.075 mM and 0.10 mM and were incubated at […] and 100 rpm in a shake incubator for 4 days. Subsequently, the flasks were subcultured every four days to a start count of […], maintaining sodium butyrate concentrations as above in each flask. The flasks were sampled and assayed before each subculture. The culture was continued in this ‘draw-fill’/‘repeated batch’ manner for 56 days, maintaining sodium butyrate concentrations at the concentrations indicated throughout. Viable cells were counted for each sample taken as outlined below. Antibody titre for each sample taken was determined as outlined below.
The quantity of Human IgG was determined by a Nephelometric method (Tanford, C. (1961) Light Scattering. Physical Chemistry of Macromolecules. New York:Wiley, 275-316; Whicher J. T et al (1978), “An evaulation of Hyland laser nephelometer PDQ system for the measurement of immunoglobulins”; Ann.Clin.Biochem. 15, p77-85), whereby the formation of insoluble immune-precipitin of Human IgG with highly specific antibody to Human IgG was measured. The Nephelometer measured the intensity of the light scattered by the insoluble immune-precipitin in reaction solution. The change in intensity of the scattered light signal is proportional to the concentration of Human IgG in tested sample. The quantity of Human IgG in the sample is measured from a standard curve constructed from known concentration of purified Human IgG versus the rate of light scatter signal.

[2] = tested on: recombinant murine NS0 cells transfected with a IgG1 humanised anti-CD23 antibody; assay: Viable cell count (Erythrosin B exclusion, haemocytometer) in repeated batch NS0 cell culture; type: cell-based; settings: 0.075 mM butyrate
Description: as §1
Culture was diluted as necessary in culture medium. It was examined microscopically in a haemocytometer (Neubauer counting chamber) using Erythrosin B (Sigma) 0.04% w/v in PBS, pH 7 as an exclusion dye. The number of viable and non-viable cells per milliliter and the percentage viability of the culture was calculated.

With CCCC(=O)[O-].[Na+] [Butyrate, sodium butyrate] the “antibody titre over control” value ([1]; 0.075 mM butyrate maintained in medium) was “marked increase in antibody titre over control”, the “antibody titre over control” value ([1]; 0.075 mM butyrate maintained in medium, listed as butyrate) was “marked increase over control” and the “consistency of protein production during the culturing process” value ([1]; 0.075 mM butyrate) was “more consistent production”. For the same compound, the “antibody titre over control” value ([1]; 0.1 mM butyrate maintained in medium) was “marked increase in antibody titre over control”, the “consistency of protein production during the culturing process” value ([1]; 0.1 mM butyrate) was “erratic protein production” and the “decrease in viable cell count compared to control” value ([2]; by 56 day) was “narrowed considerably”. For the same compound, the “viable cell count compared to control” value ([2]; early stages of the culturing process) was “slight decrease in viable cell count”.
